Data as given in ChEMBL document CHEMBL1151757, “Synthesis, radiosynthesis, and biological evaluation of fluorine-18-labeled 2beta-carbo(fluoroalkoxy)-3beta-(3'-((Z)-2-haloethenyl)phenyl)nortropanes: candidate radioligands for in vivo imaging of the serotonin transporter with positron emission tomography” (J Med Chem, 2008).

How the values were obtained:
[1] = Drug uptake in anesthetized cynomolgus monkey brain occipital lobe after 155 mins postinjection; assay type: ADME, organism-based, Macaca fascicularis; details: in vivo
Midbrain [2] = test: Drug uptake in anesthetized cynomolgus monkey brain midbrain after 0.5 mins postinjection; assay type: ADME, organism-based, Macaca fascicularis; parameters: unit not given here; details: in vivo
Putamen [3] = test: Drug uptake in anesthetized cynomolgus monkey brain putamen after 15.5 mins postinjection; assay type: ADME, organism-based, Macaca fascicularis; parameters: unit not given here; details: in vivo
[4] = Ratio of drug uptake in caudate to cerebellum in anesthetized cynomolgus monkey after 155 mins postinjection; assay type: ADME, organism-based, Macaca fascicularis; details: in vivo
[5] = Drug uptake in anesthetized cynomolgus monkey brain occipital lobe after 85 mins postinjection; assay type: ADME, organism-based, Macaca fascicularis; details: in vivo
Midbrain [6] = test: Drug uptake in anesthetized cynomolgus monkey brain midbrain after 225 mins postinjection; assay type: ADME, organism-based, Macaca fascicularis; details: in vivo, 3.75 h
[7] = Drug uptake in anesthetized cynomolgus monkey brain frontal lobe after 65 mins postinjection; assay type: ADME, organism-based, Macaca fascicularis; details: in vivo
[8] = Ratio of drug uptake in medulla to cerebellum in anesthetized cynomolgus monkey after 195 mins postinjection; assay type: ADME, organism-based, Macaca fascicularis; details: in vivo, 3.25 h
Medulla [9] = test: Drug uptake in anesthetized cynomolgus monkey brain medulla after 35 mins postinjection; assay type: ADME, organism-based, Macaca fascicularis; details: in vivo
Putamen [10] = test: Drug uptake in anesthetized cynomolgus monkey brain putamen after 115 mins postinjection; assay type: ADME, organism-based, Macaca fascicularis; parameters: unit not given here; details: in vivo
[11] = Drug uptake in anesthetized cynomolgus monkey brain frontal lobe after 2.5 mins postinjection; assay type: ADME, organism-based, Macaca fascicularis; details: in vivo
[12] = Drug uptake in anesthetized cynomolgus monkey brain frontal lobe after 22.5 mins postinjection; assay type: ADME, organism-based, Macaca fascicularis; details: in vivo, 0.375 h
Medulla [13] = test: Drug uptake in anesthetized cynomolgus monkey brain medulla after 175 mins postinjection; assay type: ADME, organism-based, Macaca fascicularis; details: in vivo
Caudate [14] = test: Drug uptake in anesthetized cynomolgus monkey brain caudate after 65 mins postinjection; assay type: ADME, organism-based, Macaca fascicularis, Caudate nucleus; details: in vivo
[15] = Ratio of drug uptake in frontal lobe to cerebellum in anesthetized cynomolgus monkey after 95 mins postinjection; assay type: ADME, organism-based, Macaca fascicularis; details: in vivo
Caudate [16] = test: Drug uptake in anesthetized cynomolgus monkey brain caudate after 12.5 mins postinjection; assay type: ADME, organism-based, Macaca fascicularis, Caudate nucleus; details: in vivo
[17] = Ratio of drug uptake in putamen to cerebellum in anesthetized cynomolgus monkey after 9.5 mins postinjection; assay type: ADME, organism-based, Macaca fascicularis; details: in vivo
[18] = Ratio of drug uptake in medulla to cerebellum in anesthetized cynomolgus monkey after 135 mins postinjection; assay type: ADME, organism-based, Macaca fascicularis; details: in vivo, 2.25 h
Pons [19] = test: Drug uptake in anesthetized cynomolgus monkey brain pons after 175 mins postinjection; assay type: ADME, organism-based, Macaca fascicularis; details: in vivo
[20] = Ratio of drug uptake in medulla to cerebellum in anesthetized cynomolgus monkey after 12.5 mins postinjection; assay type: ADME, organism-based, Macaca fascicularis; details: in vivo
[21] = Ratio of drug uptake in caudate to cerebellum in anesthetized cynomolgus monkey after 55 mins postinjection; assay type: ADME, organism-based, Macaca fascicularis; details: in vivo
[22] = Drug uptake in anesthetized cynomolgus monkey brain cerebellum after 85 mins postinjection; assay type: ADME, organism-based, Macaca fascicularis; details: in vivo
Putamen [23] = test: Drug uptake in anesthetized cynomolgus monkey brain putamen after 12.5 mins postinjection; assay type: ADME, organism-based, Macaca fascicularis; parameters: unit not given here; details: in vivo
[24] = Drug uptake in anesthetized cynomolgus monkey brain occipital lobe after 115 mins postinjection; assay type: ADME, organism-based, Macaca fascicularis; details: in vivo
Pons [25] = test: Drug uptake in anesthetized cynomolgus monkey brain pons after 6.5 mins postinjection; assay type: ADME, organism-based, Macaca fascicularis; details: in vivo
[26] = Drug uptake in anesthetized cynomolgus monkey brain cerebellum after 2.5 mins postinjection; assay type: ADME, organism-based, Macaca fascicularis; details: in vivo
Pons [27] = test: Drug uptake in anesthetized cynomolgus monkey brain pons after 27.5 mins postinjection; assay type: ADME, organism-based, Macaca fascicularis; details: in vivo
[28] = Drug uptake in anesthetized cynomolgus monkey brain cerebellum after 15.5 mins postinjection; assay type: ADME, organism-based, Macaca fascicularis; details: in vivo
[29] = Drug uptake in anesthetized cynomolgus monkey brain cerebellum after 35 mins postinjection; assay type: ADME, organism-based, Macaca fascicularis; details: in vivo
Medulla [30] = test: Drug uptake in anesthetized cynomolgus monkey brain medulla after 4.5 mins postinjection; assay type: ADME, organism-based, Macaca fascicularis; details: in vivo, 0.075 h
[31] = Ratio of drug uptake in pons to cerebellum in anesthetized cynomolgus monkey after 145 mins postinjection; assay type: ADME, organism-based, Macaca fascicularis; details: in vivo
[32] = Ratio of drug uptake in frontal lobe to cerebellum in anesthetized cynomolgus monkey after 3.5 mins postinjection; assay type: ADME, organism-based, Macaca fascicularis; details: in vivo
Midbrain [33] = test: Drug uptake in anesthetized cynomolgus monkey brain midbrain after 175 mins postinjection; assay type: ADME, organism-based, Macaca fascicularis; details: in vivo
[34] = Drug uptake in anesthetized cynomolgus monkey brain cerebellum after 6.5 mins postinjection; assay type: ADME, organism-based, Macaca fascicularis; details: in vivo
[35] = Drug uptake in anesthetized cynomolgus monkey brain occipital lobe after 3.5 mins postinjection; assay type: ADME, organism-based, Macaca fascicularis; details: in vivo
[36] = Ratio of drug uptake in occipital lobe to cerebellum in anesthetized cynomolgus monkey after 125 mins postinjection; assay type: ADME, organism-based, Macaca fascicularis; details: in vivo
[37] = Ratio of drug uptake in pons to cerebellum in anesthetized cynomolgus monkey after 175 mins postinjection; assay type: ADME, organism-based, Macaca fascicularis; details: in vivo
[38] = Ratio of drug uptake in midbrain to cerebellum in anesthetized cynomolgus monkey after 85 mins postinjection; assay type: ADME, organism-based, Macaca fascicularis; details: in vivo
[39] = Ratio of drug uptake in occipital lobe to cerebellum in anesthetized cynomolgus monkey after 205 mins postinjection; assay type: ADME, organism-based, Macaca fascicularis; details: in vivo
Midbrain [40] = test: Drug uptake in anesthetized cynomolgus monkey brain midbrain after 15.5 mins postinjection; assay type: ADME, organism-based, Macaca fascicularis; parameters: unit not given here; details: in vivo
Thalamus [41] = test: Drug uptake in anesthetized cynomolgus monkey brain thalamus after 185 mins postinjection; assay type: ADME, organism-based, Macaca fascicularis; details: in vivo
Thalamus [42] = test: Drug uptake in anesthetized cynomolgus monkey brain thalamus after 65 mins postinjection; assay type: ADME, organism-based, Macaca fascicularis; parameters: unit not given here; details: in vivo
Putamen [43] = test: Drug uptake in anesthetized cynomolgus monkey brain putamen after 175 mins postinjection; assay type: ADME, organism-based, Macaca fascicularis; details: in vivo
Midbrain [44] = test: Drug uptake in anesthetized cynomolgus monkey brain midbrain after 2.5 mins postinjection; assay type: ADME, organism-based, Macaca fascicularis; parameters: unit not given here; details: in vivo
[45] = Drug uptake in anesthetized cynomolgus monkey brain frontal lobe after 125 mins postinjection; assay type: ADME, organism-based, Macaca fascicularis; details: in vivo
[46] = Drug uptake in anesthetized cynomolgus monkey brain cerebellum after 135 mins postinjection; assay type: ADME, organism-based, Macaca fascicularis; details: in vivo, 2.25 h
Caudate [47] = test: Drug uptake in anesthetized cynomolgus monkey brain caudate after 0.5 mins postinjection; assay type: ADME, organism-based, Macaca fascicularis, Caudate nucleus; details: in vivo
Midbrain [48] = test: Drug uptake in anesthetized cynomolgus monkey brain midbrain after 95 mins postinjection; assay type: ADME, organism-based, Macaca fascicularis; parameters: unit not given here; details: in vivo
Putamen [49] = test: Drug uptake in anesthetized cynomolgus monkey brain putamen after 205 mins postinjection; assay type: ADME, organism-based, Macaca fascicularis; details: in vivo
[50] = Ratio of drug uptake in putamen to cerebellum in anesthetized cynomolgus monkey after 0.5 mins postinjection; assay type: ADME, organism-based, Macaca fascicularis; details: in vivo
[51] = Drug uptake in anesthetized cynomolgus monkey brain frontal lobe after 225 mins postinjection; assay type: ADME, organism-based, Macaca fascicularis; details: in vivo, 3.75 h
[52] = Ratio of drug uptake in occipital lobe to cerebellum in anesthetized cynomolgus monkey after 195 mins postinjection; assay type: ADME, organism-based, Macaca fascicularis; details: in vivo, 3.25 h
Putamen [53] = test: Drug uptake in anesthetized cynomolgus monkey brain putamen after 155 mins postinjection; assay type: ADME, organism-based, Macaca fascicularis; details: in vivo
[54] = Drug uptake in anesthetized cynomolgus monkey brain occipital lobe after 235 mins postinjection; assay type: ADME, organism-based, Macaca fascicularis; details: in vivo
[55] = Drug uptake in anesthetized cynomolgus monkey brain occipital lobe after 145 mins postinjection; assay type: ADME, organism-based, Macaca fascicularis; details: in vivo
[56] = Drug uptake in anesthetized cynomolgus monkey brain frontal lobe after 1.5 mins postinjection; assay type: ADME, organism-based, Macaca fascicularis; details: in vivo, 0.025 h
[57] = Ratio of drug uptake in medulla to cerebellum in anesthetized cynomolgus monkey after 35 mins postinjection; assay type: ADME, organism-based, Macaca fascicularis; details: in vivo
Medulla [58] = test: Drug uptake in anesthetized cynomolgus monkey brain medulla after 145 mins postinjection; assay type: ADME, organism-based, Macaca fascicularis; details: in vivo
Putamen [59] = test: Drug uptake in anesthetized cynomolgus monkey brain putamen after 45 mins postinjection; assay type: ADME, organism-based, Macaca fascicularis; parameters: unit not given here; details: in vivo, 0.75 h
[60] = Drug uptake in anesthetized cynomolgus monkey brain cerebellum after 155 mins postinjection; assay type: ADME, organism-based, Macaca fascicularis; details: in vivo
Midbrain [61] = test: Drug uptake in anesthetized cynomolgus monkey brain midbrain after 4.5 mins postinjection; assay type: ADME, organism-based, Macaca fascicularis; parameters: unit not given here; details: in vivo, 0.075 h
[62] = Drug uptake in anesthetized cynomolgus monkey brain cerebellum after 9.5 mins postinjection; assay type: ADME, organism-based, Macaca fascicularis; details: in vivo
[63] = Ratio of drug uptake in frontal lobe to cerebellum in anesthetized cynomolgus monkey after 195 mins postinjection; assay type: ADME, organism-based, Macaca fascicularis; details: in vivo, 3.25 h
Caudate [64] = test: Drug uptake in anesthetized cynomolgus monkey brain caudate after 22.5 mins postinjection; assay type: ADME, organism-based, Macaca fascicularis, Caudate nucleus; details: in vivo, 0.375 h
Caudate [65] = test: Drug uptake in anesthetized cynomolgus monkey brain caudate after 135 mins postinjection; assay type: ADME, organism-based, Macaca fascicularis, Caudate nucleus; details: in vivo, 2.25 h
Pons [66] = test: Drug uptake in anesthetized cynomolgus monkey brain pons after 85 mins postinjection; assay type: ADME, organism-based, Macaca fascicularis; details: in vivo
[67] = Ratio of drug uptake in medulla to cerebellum in anesthetized cynomolgus monkey after 95 mins postinjection; assay type: ADME, organism-based, Macaca fascicularis; details: in vivo

What does the source list for `O=C(OCC[18F])C1C2CCC(CC1c1cccc(/C=C\Br)c1)N2` (configuration not stated)?
Drug uptake [1]: 2.67; Drug uptake (Midbrain [2]): 0.01; Drug uptake (Putamen [3]): 4.05; Ratio [4]: 1.6; Drug uptake [5]: 3.31; Drug uptake (Midbrain [6]): 3.74; Drug uptake [7]: 2.94; Ratio [8]: 1.9; Drug uptake (Medulla [9]): 4.97; Drug uptake (Putamen [10]): 4.68; Drug uptake [11]: 0.22; Drug uptake [12]: 2.54; Drug uptake (Medulla [13]): 3.62; Drug uptake (Caudate [14]): 4.08; Ratio [15]: 0.9; Drug uptake (Caudate [16]): 2.61; Ratio [17]: 1.1; Ratio [18]: 1.7; Drug uptake (Pons [19]): 3.72; Ratio [20]: 1.2; Ratio [21]: 1.1; Drug uptake [22]: 3.17; Drug uptake (Putamen [23]): 3.69; Drug uptake [24]: 3.02; Drug uptake (Pons [25]): 2.79; Drug uptake [26]: 0.42; Drug uptake (Pons [27]): 4.1; Drug uptake [28]: 3.57; Drug uptake [29]: 3.84; Drug uptake (Medulla [30]): 2.07; Ratio [31]: 1.8; Ratio [32]: 0.5; Drug uptake (Midbrain [33]): 4.13; Drug uptake [34]: 2.75; Drug uptake [35]: 0.64; Ratio [36]: 1.1; Ratio [37]: 1.8; Ratio [38]: 1.5; Ratio [39]: 1.3; Drug uptake (Midbrain [40]): 4.06; Drug uptake (Thalamus [41]): 3.48; Drug uptake (Thalamus [42]): 4.51; Drug uptake (Putamen [43]): 3.76; Drug uptake (Midbrain [44]): 0.55; Drug uptake [45]: 2.69; Drug uptake [46]: 2.43; Drug uptake (Caudate [47]): 0; Drug uptake (Midbrain [48]): 4.91; Drug uptake (Putamen [49]): 3.42; Ratio [50]: 1.3; Drug uptake [51]: 1.88; Ratio [52]: 1.1; Drug uptake (Putamen [53]): 4.01; Drug uptake [54]: 1.94; Drug uptake [55]: 2.74; Drug uptake [56]: 0.04; Ratio [57]: 1.3; Drug uptake (Medulla [58]): 3.92; Drug uptake (Putamen [59]): 4.94; Drug uptake [60]: 2.19; Drug uptake (Midbrain [61]): 1.76; Drug uptake [62]: 3.17; Ratio [63]: 1.2; Drug uptake (Caudate [64]): 3.22; Drug uptake (Caudate [65]): 3.74; Drug uptake (Pons [66]): 4.29; Ratio [67]: 1.5
